Experimental data: patent US9635854B2, “Controlling red rice with mesotrione” (FMC Corporation, priority 2014, dated 2017)
Read-outs that look alike come from different tables or passages of the source.

Key:
red rice (Oryza sativa) = assay: Pre-emergent evaluation on flooded rice, red rice control; format: in vivo; settings: PRE, direct-seeded flooded rice
Experimental: Rice (Oryza sativa) crop varieties (‘Cybonee’, ‘Jupiter’, and ‘Taggart’) and red rice (Oryza sativa) were planted in 6 inch plastic pots containing sterile top soil. Eight to ten seeds of each species were seeded at 12 o'clock, 3 o'clock, 6 o'clock or 9 o'clock around the pot. The pots were watered after planting. […] The test solutions were applied using a compressed air track spray chamber at 30 gallons per acre using a Teejet 8001E nozzle at 40 PSI, three replicates per test rate. After treatment, the pots were watered lightly and transferred to trays in a greenhouse. After the plants were two inches in height the trays were flooded with water and maintained as such for 14 days. The trays were emptied of water and the pots were maintained by regular watering for 4 more days. At 14, 21 and 28 days after treatment (DAT) the plants were evaluated versus untreated control pots containing the same rice and weeds using a scale of 0% (no control) to 100% (complete plant death).

[1] = tested on: Rice (Oryza sativa) 'Cybonee'; settings: PRE, direct-seeded dryland rice
Description: (§1) Rice (Oryza sativa) was planted in 6″ by 10″ fiber flats filled with sterile top soil. Five rows were made in each flat and the three rice varieties (′Cybonee, ‘Jupiter’, and ‘Taggart’) were planted in the center 3 rows and a row of red rice (Oryza sativa) was planted on either end of the flat. The flats were watered after planting. After application flats were placed in the greenhouse and lightly watered. […] The flats were moved to a greenhouse and watered and fertilized routinely. Studies were conducted using randomized complete block design with four replications. In both studies, visual percent red rice control and rice injury were recorded at 14, 21, and 28 days after treatment (DAT), using a scale of 0 (no control/injury) to 100 (complete plant death).

[2] = tested on: Rice (Oryza sativa) 'Jupiter'; settings: PRE, direct-seeded dryland rice
Description: as §1

[3] = tested on: Rice (Oryza sativa) 'Taggart'; settings: PRE, direct-seeded dryland rice
Description: as §1

rice (Taggart variety) = assay: Pre-emergent weed control in direct-seeded flooded rice (Example 2), rice injury; format: in vivo; settings: for % Rice Injury Rice Taggert: pre-emergent, flooded, 28 Days After Treatment
Description: (§2) Seeds of crops, rice (Taggart and Wells varieties) and weeds, yellow nutsedge (Cyperus esculentus), barnyardgrass (Echinochloa crus-galli), large crabgrass (Digitaria sanguinalis), hemp sesbania (Sesbania herbacea), Benghal dayflower (Commelina benghalensis), red rice (Oryza sativa) and broadleaf signalgrass (Urochloa platyphylla) were planted in two gallon pots containing top soil. Each pot was watered well before the application of mesotrione (Callisto® Herbicide from Syngenta Crop Protection).

rice (Wells variety) = assay: as above; format: in vivo; settings: for % Rice Injury Rice Wells: pre-emergent, flooded, 28 Days After Treatment
Description: as §2

yellow nutsedge = assay: Direct seeded dryland rice test, pre-emergent (FIG. 2); format: in vivo; settings: pre-emergent treatment at 25 g ai/ha
large crabgrass = assay: as above; format: in vivo; settings: pre-emergent treatment at 25 g ai/ha

## CS(=O)(=O)c1ccc(C(=O)C2C(=O)CCCC2=O)c([N+](=O)[O-])c1 [Mesotrione, mesotrione]
Red rice (Oryza sativa); 14 DAT, 12.5 g ai/ha
  Percent red rice control: 68 BC %
Red rice (Oryza sativa); 14 DAT, 25 g ai/ha
  Percent red rice control: 70 ABC %
Red rice (Oryza sativa); 14 DAT, 37.5 g ai/ha
  Percent red rice control: 78 AB %
Red rice (Oryza sativa); 14 DAT, 50 g ai/ha
  Percent red rice control: 81 AB %
Red rice (Oryza sativa); 14 DAT, 62.5 g ai/ha
  Percent red rice control: 81 AB %
Red rice (Oryza sativa); 14 DAT, 75 g ai/ha
  Percent red rice control: 84 A %
Red rice (Oryza sativa); 14 DAT, 87.5 g ai/ha
  Percent red rice control: 80 AB %
Red rice (Oryza sativa); 14 DAT, 100 g ai/ha
  Percent red rice control: 84 A %
Red rice (Oryza sativa); 21 DAT, 12.5 g ai/ha
  Percent red rice control: 91 A %
Red rice (Oryza sativa); 21 DAT, 25 g ai/ha
  Percent red rice control: 97 A %
Red rice (Oryza sativa); 21 DAT, 37.5 g ai/ha
  Percent red rice control: 98 A %
Red rice (Oryza sativa); 21 DAT, 50 g ai/ha
  Percent red rice control: 97 A %
Red rice (Oryza sativa); 21 DAT, 62.5 g ai/ha
  Percent red rice control: 97 A %
Red rice (Oryza sativa); 21 DAT, 75 g ai/ha
  Percent red rice control: 98 A %
Red rice (Oryza sativa); 21 DAT, 87.5 g ai/ha
  Percent red rice control: 98 A %
Red rice (Oryza sativa); 21 DAT, 100 g ai/ha
  Percent red rice control: 98 A %
Red rice (Oryza sativa); 28 DAT, 12.5 g ai/ha
  Percent red rice control: 93 A %
Red rice (Oryza sativa); 28 DAT, 25 g ai/ha
  Percent red rice control: 97 A %
Red rice (Oryza sativa); 28 DAT, 37.5 g ai/ha
  Percent red rice control: 100 A %
Red rice (Oryza sativa); 28 DAT, 50 g ai/ha
  Percent red rice control: 99 A %
Red rice (Oryza sativa); 28 DAT, 62.5 g ai/ha
  Percent red rice control: 99 A %
Red rice (Oryza sativa); 28 DAT, 75 g ai/ha
  Percent red rice control: 100 A %
Red rice (Oryza sativa); 28 DAT, 87.5 g ai/ha
  Percent red rice control: 98 A %
Red rice (Oryza sativa); 28 DAT, 100 g ai/ha
  Percent red rice control: 100 A %
[1]; 14 DAT, 12.5 g ai/ha
  Percent rice injury Cybonet: 6 BCD %
[1]; 14 DAT, 25 g ai/ha
  Percent rice injury Cybonet: 1 D %
[1]; 14 DAT, 37.5 g ai/ha
  Percent rice injury Cybonet: 1 D %
[1]; 14 DAT, 50 g ai/ha
  Percent rice injury Cybonet: 1 D %
[1]; 14 DAT, 62.5 g ai/ha
  Percent rice injury Cybonet: 4 D %
[1]; 14 DAT, 75 g ai/ha
  Percent rice injury Cybonet: 5 CD %
[1]; 14 DAT, 87.5 g ai/ha
  Percent rice injury Cybonet: 11 BC %
[1]; 14 DAT, 100 g ai/ha
  Percent rice injury Cybonet: 12 B %
[1]; 21 DAT, 12.5 g ai/ha
  Percent rice injury Cybonet: 5 DE %
[1]; 21 DAT, 25 g ai/ha
  Percent rice injury Cybonet: 1 E %
[1]; 21 DAT, 37.5 g ai/ha
  Percent rice injury Cybonet: 1 E %
[1]; 21 DAT, 50 g ai/ha
  Percent rice injury Cybonet: 5 DE %
[1]; 21 DAT, 62.5 g ai/ha
  Percent rice injury Cybonet: 5 DE %
[1]; 21 DAT, 75 g ai/ha
  Percent rice injury Cybonet: 8 BCD %
[1]; 21 DAT, 87.5 g ai/ha
  Percent rice injury Cybonet: 12 BC %
[1]; 21 DAT, 100 g ai/ha
  Percent rice injury Cybonet: 13 B %
[1]; 28 DAT, 12.5 g ai/ha
  Percent rice injury Cybonet: 5 DE %
[1]; 28 DAT, 25 g ai/ha
  Percent rice injury Cybonet: 1 E %
[1]; 28 DAT, 37.5 g ai/ha
  Percent rice injury Cybonet: 1 E %
[1]; 28 DAT, 50 g ai/ha
  Percent rice injury Cybonet: 6 DE %
[1]; 28 DAT, 62.5 g ai/ha
  Percent rice injury Cybonet: 9 DE %
[1]; 28 DAT, 75 g ai/ha
  Percent rice injury Cybonet: 15 CD %
[1]; 28 DAT, 87.5 g ai/ha
  Percent rice injury Cybonet: 25 BC %
[1]; 28 DAT, 100 g ai/ha
  Percent rice injury Cybonet: 33 AB %
[2]; 14 DAT, 12.5 g ai/ha
  Percent rice injury Jupiter: 0 E %
[2]; 14 DAT, 25 g ai/ha
  Percent rice injury Jupiter: 0 E %
[2]; 14 DAT, 37.5 g ai/ha
  Percent rice injury Jupiter: 2 DE %
[2]; 14 DAT, 50 g ai/ha
  Percent rice injury Jupiter: 3 DE %
[2]; 14 DAT, 62.5 g ai/ha
  Percent rice injury Jupiter: 5 CD %
[2]; 14 DAT, 75 g ai/ha
  Percent rice injury Jupiter: 8 BC %
[2]; 14 DAT, 87.5 g ai/ha
  Percent rice injury Jupiter: 10 BC %
[2]; 14 DAT, 100 g ai/ha
  Percent rice injury Jupiter: 11 B %
[2]; 21 DAT, 12.5 g ai/ha
  Percent rice injury Jupiter: 0 E %
[2]; 21 DAT, 25 g ai/ha
  Percent rice injury Jupiter: 0 E %
[2]; 21 DAT, 37.5 g ai/ha
  Percent rice injury Jupiter: 2 DE %
[2]; 21 DAT, 50 g ai/ha
  Percent rice injury Jupiter: 6 CDS %
[2]; 21 DAT, 62.5 g ai/ha
  Percent rice injury Jupiter: 7 CD %
[2]; 21 DAT, 75 g ai/ha
  Percent rice injury Jupiter: 10 BC %
[2]; 21 DAT, 87.5 g ai/ha
  Percent rice injury Jupiter: 11 BC %
[2]; 21 DAT, 100 g ai/ha
  Percent rice injury Jupiter: 14 B %
[2]; 28 DAT, 12.5 g ai/ha
  Percent rice injury Jupiter: 0 D %
[2]; 28 DAT, 25 g ai/ha
  Percent rice injury Jupiter: 0 D %
[2]; 28 DAT, 37.5 g ai/ha
  Percent rice injury Jupiter: 1 D %
[2]; 28 DAT, 50 g ai/ha
  Percent rice injury Jupiter: 6 CD %
[2]; 28 DAT, 62.5 g ai/ha
  Percent rice injury Jupiter: 8 CD %
[2]; 28 DAT, 75 g ai/ha
  Percent rice injury Jupiter: 21 BC %
[2]; 28 DAT, 87.5 g ai/ha
  Percent rice injury Jupiter: 26 B %
[2]; 28 DAT, 100 g ai/ha
  Percent rice injury Jupiter: 56 A %
[3]; 14 DAT, 12.5 g ai/ha
  Percent rice injury Taggart: 0 E %
[3]; 14 DAT, 25 g ai/ha
  Percent rice injury Taggart: 0 E %
[3]; 14 DAT, 37.5 g ai/ha
  Percent rice injury Taggart: 1 E %
[3]; 14 DAT, 50 g ai/ha
  Percent rice injury Taggart: 2 DE %
[3]; 14 DAT, 62.5 g ai/ha
  Percent rice injury Taggart: 6 C %
[3]; 14 DAT, 75 g ai/ha
  Percent rice injury Taggart: 5 CD %
[3]; 14 DAT, 87.5 g ai/ha
  Percent rice injury Taggart: 9 BC %
[3]; 14 DAT, 100 g ai/ha
  Percent rice injury Taggart: 11 B %
[3]; 21 DAT, 12.5 g ai/ha
  Percent rice injury Taggart: 0 C %
[3]; 21 DAT, 25 g ai/ha
  Percent rice injury Taggart: 0 C %
[3]; 21 DAT, 37.5 g ai/ha
  Percent rice injury Taggart: 1 BC %
[3]; 21 DAT, 50 g ai/ha
  Percent rice injury Taggart: 5 BC %
[3]; 21 DAT, 62.5 g ai/ha
  Percent rice injury Taggart: 9 BC %
[3]; 21 DAT, 75 g ai/ha
  Percent rice injury Taggart: 10 BC %
[3]; 21 DAT, 87.5 g ai/ha
  Percent rice injury Taggart: 11 BC %
[3]; 21 DAT, 100 g ai/ha
  Percent rice injury Taggart: 13 B %
[3]; 28 DAT, 12.5 g ai/ha
  Percent rice injury Taggart: 0 D %
[3]; 28 DAT, 25 g ai/ha
  Percent rice injury Taggart: 0 D %
[3]; 28 DAT, 37.5 g ai/ha
  Percent rice injury Taggart: 1 D %
[3]; 28 DAT, 50 g ai/ha
  Percent rice injury Taggart: 6 CD %
[3]; 28 DAT, 62.5 g ai/ha
  Percent rice injury Taggart: 12 BCD %
[3]; 28 DAT, 75 g ai/ha
  Percent rice injury Taggart: 23 BC %
[3]; 28 DAT, 87.5 g ai/ha
  Percent rice injury Taggart: 29 B %
[3]; 28 DAT, 100 g ai/ha
  Percent rice injury Taggart: 50 A %
Rice (Taggart variety); 6 g ai/ha
  % Rice Injury Rice Taggert: 0%
Rice (Taggart variety); 12 g ai/ha
  % Rice Injury Rice Taggert: 2%
Rice (Taggart variety); 25 g ai/ha
  % Rice Injury Rice Taggert: 4%
Rice (Taggart variety); 50 g ai/ha
  % Rice Injury Rice Taggert: 8%
Rice (Taggart variety); 100 g ai/ha
  % Rice Injury Rice Taggert: 10%
Rice (Taggart variety); 200 g ai/ha
  % Rice Injury Rice Taggert: 53%
Rice (Taggart variety); summary of Table 7 data
  safety on white rice, Taggart: safe
Rice (Wells variety); 6 g ai/ha
  % Rice Injury Rice Wells: 0%
Rice (Wells variety); 12 g ai/ha
  % Rice Injury Rice Wells: 2%
Rice (Wells variety); 25 g ai/ha
  % Rice Injury Rice Wells: 4%
Rice (Wells variety); 50 g ai/ha
  % Rice Injury Rice Wells: 5%
Rice (Wells variety); 100 g ai/ha
  % Rice Injury Rice Wells: 12%
Rice (Wells variety); 200 g ai/ha
  % Rice Injury Rice Wells: 47%
Rice (Wells variety); summary of Table 7 data
  safety on white rice, Wells: safe
Yellow nutsedge
  yellow nutsedge control (words, FIG. 2): controlled
Large crabgrass
  large crabgrass control (words, FIG. 2): controlled
